Biological target: uPAR H47C-N259C
Assay: SPR inhibition of uPAR binding to immobilized uPA (uPAR H47C-N259C)
Set-up: species or system human
Conditions: inhibition of uPAR binding to immobilized prouPA S356A
Procedure: Covalent immobilization of purified human prouPA^S356A was accomplished by injecting 12.5 μg/ml protein dissolved in 10 mM sodium acetate (pH 5.0) over a CM5 chip that had been pre-activated with NHS/EDC (N-ethyl-N′[3-[…])propyl]-carbodiimide), aiming at a surface density of >5000 resonance units (RU) corresponding to 100 fmols/mm^2. After coupling the sensor-chip was deactivated with 1 M ethanolamine. Binding of purified human uPAR as analyte was measured from 4 nM to 0.25 nM at using 10 mM HEPES, 150 mM NaCl, 3 mM EDTA (pH 7.4) containing (v/v) surfactant P20 as running buffer at a flow rate of […]. In between cycles the sensor-chip was regenerated by two consecutive 10-μl injections of 0.1 M acetic acid/HCI (pH 2.5) in 0.5 M NaCl. The inhibition of 3-fold dilutions of the compounds in question was measured for 4 nM uPAR with identical running conditions. All experiments were performed on a BiacoreT200 instrument.
For each inhibition peptide inhibition profile of uPAR binding to immobilized uPA there has been run a preceding standard curve and all calculations are based on the that standard curve.

SMILES: CC(C)C[C@H](NC(=O)[C@H](Cc1ccc(O)cc1)NC(=O)[C@@H](CCCNC(=N)N)NC(=O)[C@@H](CO)NC(=O)[C@H](Cc1ccccc1)NC(=O)[C@H](CC1CCCCC1)NC(=O)[C@@H](N)CC(=O)O)C(=O)N[C@@H](Cc1c[nH]c2ccccc12)C(=O)N[C@@H](CO)C(=O)O [AE105, DChaFsrYLWS-OH]
- IC50: 4.5 ± 1.5 µM
